In patent publication US20220411480A1, “ANTITUMOR PEPTIDE AND USE THEREOF” (TOAGOSEI CO., LTD, priority 2018, published 2022):
Residues, ends and D or L forms follow the SMILES beside them.

Columns and labels:
[1] = Antitumor activity evaluation test (1), cell viability by Cell Counting Kit-8 (WST-8); assay type: cell-based, human; conditions: peptide 25 μM, 48 hours, relative to culture medium containing no peptide = 100%; read-out: A2058 cell viability (survival rate)
Description: (§1) The antitumor activity of the sample peptides synthesized in Test Example 1 was evaluated using human-derived cultured tumor cells as targets.
(§2) Specifically, currently commercially available human melanoma (A2058) cell lines were used as test tumor cells. In addition, a normal human mammary epithelial cell culture line (MCF-12F) was used for comparison. Here, culture solutions of respective cells are as follows. • (1) A2058 cells:
(§3) DMEM culture medium including 2 mM L-glutamine, 0.1 mM of non-essential amino acids, 50 units/mL of penicillin, 50 μg/mL of streptomycin, and 10% fetal bovine serum (FBS) (product, commercially available from Wako Pure Chemical Industries, Ltd.). • (2) MCF-12F cells:
(§4) DMEM/F12 culture medium including 20 ng/mL of recombinant EGF, 10 μg/mL of insulin, 0.5 μg/mL of hydrocortisone, and 10% FBS (product, commercially available from Wako Pure Chemical Industries, Ltd.).
(§5) A2058 cells and MCF-12F cells were cultured and prepared so that the number of cells per well in a 96-well plate was about 5×10^3. An amount of the culture medium in this case was 100 μL per well.
(§6) Next, the 96-well plate was placed in a CO2 incubator and pre-incubated under conditions of 37° C. and 5% CO2 for about 1 day (21 hours to 24 hours).
(§7) Then, peptide-containing test culture mediums for each concentration were prepared so that the concentrations of the sample peptides to be evaluated were 12.5 μM and 25 μM, and supplied to wells (that is, wells after the pre-incubation) in which 90μL of cells to be evaluated were cultured in each well. Then, the 96-well plate was returned to the CO2 incubator and incubated under conditions of 37° C. and 5% CO2 for 48 hours.
(§8) Here, the number of test wells (n) at peptide concentrations in peptide addition test groups was set to 3. Therefore, the value of the result shown in the following table is an average value of the results obtained in three test wells. First, the cell viability (%) was determined as follows.
(§9) After the incubation for 48 hours was completed, the culture medium in each well was replaced with 100 μL of a fresh culture medium containing no peptide, and additionally, 10μL of a cell proliferation measurement reagent “Cell Counting Kit-8” (product, commercially available from Dojindo Molecular Technologies, Inc.) containing a “water-soluble tetrazolium salt (WST-8)” as a coloring reagent was added to each well. Then, the 96-well plate was returned to the CO2 incubator and incubated under conditions of 37° C., and 5% CO2 for 1.5 hours to 2 hours.
(§10) After the incubation was completed, the cell culture solution to which the reagent was added was collected and the cell viability (%) was evaluated according to a colorimetric method in which an absorbance at a wavelength of 450 nm (value corrected by the absorbance at a wavelength of 650 nm: A450-A650) was measured based on the reduction of the tetrazolium salt. Specifically, a measured value (measured absorbance) of a comparative test group in which the above incubation was performed for 48 hours simply in a culture medium containing no peptide was set as a cell viability of 100%, and the cell viability (%) was calculated from the measured absorbance of each test cell line as a relative value.
(§11) Specifically, a value (value multiplied by 100 for convenience) obtained by dividing the cell viability of target tumor cells (here, A2058 cells) when the sample peptides were added at a concentration of 12.5 μM or 25 μM measured as described above by the cell viability of comparative normal cells (here, MCF-12F cells) measured under the same conditions, that is,
(§12) {(A2058 cell viability)/(MCF-12F cell viability)}×100 was calculated as a specific cell viability of the tumor cells, and the test tumor cells selective antitumor activity with respect to normal cells was evaluated using such a specific cell viability as an index.

[2] = tested on: human melanoma (A2058) cell lines; test: as above; assay type: cell-based; conditions: 48 hours, A2058 versus normal MCF-12F cells
Description: as §1, §2, §3, §4, §5, §6, §7, §8, §9, §10, §11, §12

In the case of `CSCC[C@H](NC(=O)[C@H](C)N)C(=O)N[C@@H](Cc1ccc(O)cc1)C(=O)N[C@@H](CC(C)C)C(=O)N[C@@H](Cc1ccccc1)C(=O)N[C@@H](CC(C)C)C(=O)NCC(=O)N[C@@H](CC(N)=O)C(=O)N[C@@H](CC(C)C)C(=O)N[C@@H](C)C(=O)N[C@@H](C)C(=O)N[C@@H](CO)C(=O)N[C@@H](CC(=O)O)C(=O)N[C@@H](CC(C)C)C(=O)N[C@@H](CC(C)C)C(=O)N[C@@H](C)C(=O)NCC(=O)N[C@H](C(=O)N[C@@H](C)C(=O)N[C@@H](Cc1ccccc1)C(=O)N[C@H](C(=O)N[C@@H](C)C(=O)N[C@@H](CC(N)=O)C(=O)N[C@H](C(=O)N[C@@H](CC(C)C)C(=O)N[C@@H](CC(C)C)C(=O)N[C@@H](CO)C(=O)NCC(=O)N[C@@H](CO)C(=O)N[C@@H](CCCNC(=N)N)C(=O)N[C@@H](CCCCN)C(=O)N[C@@H](CCCCN)C(=O)N[C@@H](CCCNC(=N)N)C(=O)N[C@@H](CCCNC(=N)N)C(=O)N[C@@H](CCC(N)=O)C(=O)N[C@@H](CCCNC(=N)N)C(=O)N[C@@H](CCCNC(=N)N)C(=O)N[C@@H](CCCNC(=N)N)C(N)=O)[C@@H](C)O)C(C)C)C(C)C` [Sample 1] (H-AMYLFLGNLAASDLLAGVAFVANTLLSGSRKKRRQRRR-NH2; N-terminus assumed), the viability [1] is reported as 0.7%, the “Specific cell viability {(A2058 cell viability)/(MCF-12F cell viability)}×100” value ([2]; peptide 12.5 μM) is reported as 114.85 and the “Specific cell viability {(A2058 cell viability)/(MCF-12F cell viability)}×100” value ([2]; peptide 25 μM) is reported as 16.67.
In the case of `CC(C)C[C@H](NC(=O)CNC(=O)[C@H](CCC(=O)O)NC(=O)[C@H](CCCNC(=N)N)NC(=O)[C@H](CC(C)C)NC(=O)[C@H](Cc1ccccc1)NC(=O)[C@@H](N)Cc1c[nH]c2ccccc12)C(=O)N[C@@H](CC(C)C)C(=O)N[C@@H](Cc1ccccc1)C(=O)N[C@H](C(=O)N[C@@H](C)C(=O)N[C@@H](CC(C)C)C(=O)N[C@@H](C)C(=O)N[C@@H](C)C(=O)N[C@@H](CO)C(=O)N[C@H](C(=O)N[C@@H](Cc1ccccc1)C(=O)N[C@@H](CO)C(=O)N[C@@H](CC(C)C)C(=O)N[C@@H](CC(C)C)C(=O)N[C@@H](Cc1ccccc1)C(=O)N[C@@H](CCCNC(=N)N)C(=O)N[C@@H](CCCCN)C(=O)N[C@@H](CCCCN)C(=O)N[C@@H](CCCNC(=N)N)C(=O)N[C@@H](CCCNC(=N)N)C(=O)N[C@@H](CCC(N)=O)C(=O)N[C@@H](CCCNC(=N)N)C(=O)N[C@@H](CCCNC(=N)N)C(=O)N[C@@H](CCCNC(=N)N)C(N)=O)[C@@H](C)O)[C@@H](C)O` [Sample 3] (H-WFLREGLLFTALAASTFSLLFRKKRRQRRR-NH2; N-terminus assumed), the viability [1] is reported as 4.6%, the “Specific cell viability {(A2058 cell viability)/(MCF-12F cell viability)}×100” value ([2]; peptide 12.5 μM) is reported as 68.20 and the “Specific cell viability {(A2058 cell viability)/(MCF-12F cell viability)}×100” value ([2]; peptide 25 μM) is reported as 25.41.
In the case of `CC[C@H](C)[C@H](NC(=O)[C@H](Cc1ccccc1)NC(=O)CNC(=O)[C@H](Cc1ccc(O)cc1)NC(=O)[C@@H](N)C(C)C)C(=O)NCC(=O)N[C@@H](CC(C)C)C(=O)N[C@@H](CS)C(=O)N[C@@H](Cc1c[nH]c2ccccc12)C(=O)N[C@@H](CC(C)C)C(=O)N[C@@H](CC(C)C)C(=O)N[C@@H](C)C(=O)N[C@@H](C)C(=O)N[C@@H](CC(C)C)C(=O)N[C@@H](CC(C)C)C(=O)NCC(=O)N[C@@H](CCSC)C(=O)N[C@@H](CC(C)C)C(=O)N1CCC[C@H]1C(=O)N[C@@H](CC(C)C)C(=O)N[C@@H](CC(C)C)C(=O)N[C@@H](CCCNC(=N)N)C(=O)N[C@@H](CCCCN)C(=O)N[C@@H](CCCCN)C(=O)N[C@@H](CCCNC(=N)N)C(=O)N[C@@H](CCCNC(=N)N)C(=O)N[C@@H](CCC(N)=O)C(=O)N[C@@H](CCCNC(=N)N)C(=O)N[C@@H](CCCNC(=N)N)C(=O)N[C@@H](CCCNC(=N)N)C(N)=O` [Sample 4] (H-VYGFIGLCWLLAALLGMLPLLRKKRRQRRR-NH2; N-terminus assumed), the viability [1] is reported as 5.3%, the “Specific cell viability {(A2058 cell viability)/(MCF-12F cell viability)}×100” value ([2]; peptide 12.5 μM) is reported as 46.80 and the “Specific cell viability {(A2058 cell viability)/(MCF-12F cell viability)}×100” value ([2]; peptide 25 μM) is reported as 35.10.
